Series [1] is described as follows: Cytotoxicity against mouse RAW264.7 cells assessed as cell viability at 80 uM. In kind it is cell-based. As to conditions: read-out: Activity.
Series [2] in a line: Cytotoxicity against mouse BV2 cells assessed as cell viability at 80 uM. It counts as cell-based, BV-2. To be noted: read-out: Activity.
Series [3] has as its system RAW264.7. The series can be described thus: Inhibition of LPS-induced NO production in mouse RAW264.7 cells at 80 uM by Griess assay. In kind it is functional. (The Griess reaction detects nitrite, a stable product of nitric oxide.)
Series [4] relates to BV-2. The series can be described thus: Inhibition of LPS-induced NO production in mouse BV2 cells at 80 uM by Griess assay. In kind it is functional.
In series [5] the test system is BV-2. The series can be described thus: Inhibition of LPS-induced NO production in mouse BV2 cells by Griess assay. It counts as functional, cell-based.
Series [6] relates to RAW264.7. Put plainly: Inhibition of LPS-induced NO production in mouse RAW264.7 cells by Griess assay. In kind it is functional, cell-based.

Broadly, the inhibition is the share of the control response that was lost under treatment. As a reminder, the IC50 is the concentration at which inhibition is half-maximal.

Calls of active or inactive are those of the source. The calls are words filed in the database; no cut-off is given here.

In the case of `C[C@H]1CC[C@@]2(OC1)O[C@@H]1C[C@@H]3[C@H]4CC=C5C[C@H](O[C@H]6O[C@@H](CO)[C@H](O)[C@@H](O[C@H]7O[C@H](C)[C@@H](O[C@@H]8O[C@H](CO)[C@@H](O)[C@H](O)[C@H]8O)[C@H](O)[C@@H]7O)[C@@H]6O[C@H]6O[C@H](C)[C@@H](O)[C@H](O)[C@@H]6O)CC[C@@]5(C)[C@@H]4CC[C@@]3(C)[C@@H]1[C@H]2C`, the viability at 80 µM in series [1] and in series [2] was under 50% each time.

Regarding `C[C@@H]1O[C@@H](O[C@H]2[C@H](O[C@H]3CC[C@@]4(C)C(=CC[C@H]5[C@@H]6C[C@@H]7OC8(OC[C@](C)(O)C[C@@H]8O)[C@@H](C)[C@@H]7[C@@]6(C)CC[C@@H]54)C3)O[C@H](CO)[C@@H](O)[C@@H]2O[C@@H]2O[C@@H](C)[C@H](O)[C@@H](O)[C@H]2O)[C@H](O)[C@H](O)[C@H]1O` (single isomer, unassigned), the inhibition at 80 µM in series [3] and in series [4] was under 50% in each case. For the same compound, the IC50 in series [5] and in series [6] was over 80 µM in each case.

With `C[C@@H]1COC2(C[C@@H]1O)O[C@H]1C[C@H]3[C@@H]4CC=C5C[C@@H](O[C@@H]6O[C@H](CO)[C@@H](O)[C@H](O[C@@H]7O[C@@H](C)[C@H](O)[C@@H](O)[C@H]7O)[C@H]6O[C@@H]6O[C@@H](C)[C@H](O)[C@@H](O)[C@H]6O)CC[C@]5(C)[C@H]4CC[C@]3(C)[C@H]1[C@@H]2C` (single isomer, unassigned), the inhibition at 80 µM in series [3] and in series [4] was under 50% throughout. The IC50 in series [5] and in series [6] was over 80 µM throughout.

Take `C[C@@H]1CO[C@]2(O[C@H]3C[C@@H]4[C@@H]5CC=C6C[C@@H](O[C@@H]7O[C@H](CO)[C@@H](O)[C@H](O[C@@H]8O[C@@H](C)[C@H](O)[C@@H](O)[C@H]8O)[C@H]7O[C@@H]7O[C@@H](C)[C@H](O)[C@@H](O)[C@H]7O)CC[C@]6(C)[C@H]5CC[C@]4(C)[C@H]3[C@@H]2C)[C@@H](O)[C@@H]1O` (stereo in doubt): the inhibition result in series [3] and in series [4] was “Active” each time. Also, the IC50 in series [5] was 52.1 µM; in series [6], 60.7 µM.

For `C[C@@H]1O[C@@H](O[C@H]2[C@H](O[C@@H]3CC[C@]4(C)C(=CC[C@@H]5[C@H]6C[C@H]7O[C@@]8(OC[C@](C)(O)C[C@H]8O)[C@H](C)[C@H]7[C@]6(C)CC[C@H]54)C3)O[C@H](CO)[C@@H](O)[C@@H]2O[C@@H]2O[C@@H](C)[C@H](O[C@@H]3O[C@H](CO)[C@@H](O)[C@H](O)[C@H]3O)[C@@H](O)[C@H]2O)[C@H](O)[C@H](O)[C@H]1O` (stereo in doubt), the inhibition at 80 µM in series [3] and in series [4] was under 50% throughout. Besides, the concentration for half-maximal inhibition (IC50) in series [5] and in series [6] was over 80 µM each time.

As to `C[C@@H]1CO[C@@]2(O[C@@H]3C[C@@H]4[C@H]5CC=C6C[C@H](O[C@@H]7O[C@H](CO)[C@@H](O)[C@H](O[C@@H]8O[C@@H](C)[C@H](O[C@@H]9O[C@H](CO)[C@@H](O)[C@H](O)[C@H]9O)[C@@H](O)[C@H]8O)[C@H]7O[C@@H]7O[C@@H](C)[C@H](O)[C@@H](O)[C@H]7O)CC[C@@]6(C)[C@@H]5CC[C@@]4(C)[C@@H]3[C@H]2C)[C@H](O)C1` (stereo in doubt), the inhibition entry in series [3] and in series [4] was “Active” throughout. In addition, the 50% inhibitory concentration (IC50) in series [5] came out at 43.7 µM; in series [6], 37 µM.

Regarding `C[C@@H]1CO[C@]2(C[C@@H]1O)O[C@@H]1C[C@@H]3[C@H]4CC=C5C[C@H](O[C@@H]6O[C@H](CO)[C@@H](O)[C@H](O[C@@H]7O[C@@H](C)[C@H](O[C@@H]8O[C@H](CO)[C@@H](O)[C@H](O)[C@H]8O)[C@@H](O)[C@H]7O)[C@H]6O[C@@H]6O[C@@H](C)[C@H](O)[C@@H](O)[C@H]6O)CC[C@@]5(C)[C@@H]4CC[C@@]3(C)[C@@H]1[C@H]2C` (stereo in doubt), the inhibition at 80 µM in series [3] and in series [4] was under 50% throughout. Besides, the IC50 in series [5] and in series [6] was over 80 µM each time.

Turning to `C[C@@H]1CO[C@@]2(O[C@@H]3C[C@@H]4[C@H]5CC=C6C[C@H](O[C@@H]7O[C@H](CO)[C@@H](O)[C@H](O[C@@H]8O[C@@H](C)[C@H](O[C@@H]9O[C@H](CO)[C@@H](O)[C@H](O)[C@H]9O)[C@@H](O)[C@H]8O)[C@H]7O[C@@H]7O[C@@H](C)[C@H](O)[C@@H](O)[C@H]7O)CC[C@@]6(C)[C@@H]5CC[C@@]4(C)[C@@H]3[C@H]2C)[C@H](O)[C@@H]1O` (stereo in doubt), the inhibition entry in series [3] and in series [4] was “Active” throughout. Further, the IC50 in series [5] was found to be 47.3 µM; in series [6], 58.2 µM.

Turning to `O=C(/C=C/c1ccc(O)c(O)c1)c1ccc(O)cc1O` [BUTEIN], the IC50 came out at 4.3 µM in series [5] and 5.3 µM in series [6].

Source of the values: ChEMBL document CHEMBL3826972, “Spirostanol saponins from Tacca vietnamensis and their anti-inflammatory activity” (Bioorg Med Chem Lett, 2016).
